System: NCI-H1618 multicellular tumor spheroid viability
Test: Anticancer human tumor NCI-H1618 cell line growth inhibition;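 further: spheroids exposed to agents for 7 days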
Conditions: for IC50: curve of first compound; for viability, T/C: stronger effect = lower value
From the text: Multicellular complex tumor spheroid response to DNA repair inhibitors in combination with DNA-damaging drugs
This study explores the anticancer activities of DNA-damaging drugs and inhibitors of DNA damage repair, both as single agents and in combinations. Complex tumor spheroids comprised of malignant cells, endothelial cells and mesenchymal stem cells served as an in vitro model for human solid tumors. This model system incorporates physiologically relevant features and patient-derived or established malignant cell lines with clinically relevant genetic alterations from many tumor types. Twenty-six patient-derived or established malignant cell lines were evaluated representing sarcoma, melanoma, small cell lung cancer (SCLC), non-small cell lung cancer (NSCLC), as well as bladder, ovarian and pancreatic cancers. The concentration ranges selected for each drug and investigational agent were based upon clinically achievable concentrations if the clinical Cmax of the agent was known.
Compounds. The drugs and compounds olaparib (NSC753686), talazoparib (NSC767125), berzosertib (NSC777718), elimusertib (NSC800525), nedisertib (NSC802822), VX-984 (NSC792969), AZD-1390 (NSC803789), temozolomide (NSC362856), topotecan (NSC609699), trabectedin (NSC813783), staurosporine (NSC755774), and gemcitabine (NSC613327) were obtained from the National Cancer Institute (NCI) Developmental Therapeutics Program Chemical Repository. The FDA-approved anticancer drug set is available from the Developmental Therapeutics Program at https://dtp.cancer.gov/organization/dscb/obtaining/available_plates.htm. […] The stock solutions were prepared in dimethyl sulfoxide (DMSO, Sigma-Aldrich, St. Louis, MO, cat. D2650) at 400-fold the tested concentration and stored at -70 degrees C. Prior to their use, the stock solutions were diluted in fresh medium and the final DMSO concentration in the assay was 0.25% (v/v). All drugs and investigational agents were tested over a range starting from a high concentration at or near the clinical Cmax and decreasing in half-log increments. If the clinical Cmax for an agent had not been determined, the highest concentration tested was 10 microM.
Cell Lines. The patient-derived cancer cell (PDC) lines: 156681-154-R-J1-PDC, 283228-195-R-J1-PDC, 287954-098-R-J1-PDC, 292921-168-R-J2-PDC, 349418-098-R-PDC, 425362-245-T-J1-PDC, 556581-035-R-J1-PDC, and BL0293-F563-PDC were received from the NCI Patient-Derived Models Repository (PDMR, https://pdmr.cancer.gov). The established cell lines HS-SY-2 (RRID:CVCL_8719), MPNST, and SYO-1 (RRID:CVCL_7146) were obtained from the Sloan Kettering Institute. The alveolar soft parts sarcoma cell line ASPS-1 (RRID:CVCL_S738) was established at the NCI and grown from internal seed stocks. The following established cell lines were purchased from the American Type Culture Collection (ATCC, Manassas, VA): G-401 (ATCC, cat. CRL-1441, RRID:CVCL_0270), SW982 (ATCC, cat. HTB-93, RRID:CVCL_1734), VA-ES-BJ (ATCC, cat. CRL-2138, RRID:CVCL_1785), NCI-H719 (ATCC, cat. CRL-5837, RRID:CVCL_1582), NCI-H196 (ATCC, cat. CRL-5823, RRID:CVCL_1509), NCI-H841 (ATCC, cat. CRL-5845, RRID:CVCL_1595), NCI-H1618 (ATCC, cat. CRL-5879, RRID:CVCL_1480), NCI-H1876 (ATCC, cat. CRL-5902, RRID:CVCL_1503), DMS 114 (ATCC, cat. CRL-2066; RRID:CVCL_1174), NCI-H211 (ATCC, cat. CRL-5824; RRID:CVCL_1529), and SW 1271 (ATCC, cat. CRL-2177, RRID:CVCL_1716). The small cell lung cancer cell line COR-L88 was purchased from Sigma-Aldrich (cat. 92031917-1VL, RRID:CVCL_1141). The non-small cell lung cancer cell lines NCI-H226 (RRID:CVCL_1544) and NCI-H322M (RRID:CVCL_1557) were established at the NCI and grown from internal seed stocks. Pooled donor human umbilical vein endothelial cells (HUVEC, Lonza, cat. CC-2519) and human mesenchymal stem cells (hMSC, Lonza, cat. PT-2501) were purchased from Lonza (Walkersville, MD).
Cell Culture. All cells were maintained in an incubator at 37 degrees C and 5% CO2 with 95% humidity. […]

[1] = second compound 0.003 µM, first compound 0.00949 µM
[2] = second compound 0.003 µM, first compound 0.03 µM
[3] = second compound 0.003 µM, first compound 0.0949 µM
[4] = second compound 0.003 µM, first compound 0.3 µM
[5] = second compound 0.003 µM, first compound 0.949 µM
[6] = second compound 0.003 µM, first compound 3 µM
[7] = second compound 0.00949 µM, first compound 0.00949 µM
[8] = second compound 0.00949 µM, first compound 0.03 µM
[9] = second compound 0.00949 µM, first compound 0.0949 µM
[10] = second compound 0.00949 µM, first compound 0.3 µM
[11] = second compound 0.00949 µM, first compound 0.949 µM
[12] = second compound 0.00949 µM, first compound 3 µM
[13] = second compound 0.03 µM, first compound 0.00949 µM
[14] = second compound 0.03 µM, first compound 0.03 µM
[15] = second compound 0.03 µM, first compound 0.0949 µM
[16] = second compound 0.03 µM, first compound 0.3 µM
[17] = second compound 0.03 µM, first compound 0.949 µM
[18] = second compound 0.03 µM, first compound 3 µM
[19] = second compound 0.0949 µM, first compound 0.00949 µM
[20] = second compound 0.0949 µM, first compound 0.03 µM
[21] = second compound 0.0949 µM, first compound 0.0949 µM
[22] = second compound 0.0949 µM, first compound 0.3 µM
[23] = second compound 0.0949 µM, first compound 0.949 µM
[24] = second compound 0.0949 µM, first compound 3 µM
[25] = second compound 0.3 µM, first compound 0.00949 µM
[26] = second compound 0.3 µM, first compound 0.03 µM
[27] = second compound 0.3 µM, first compound 0.0949 µM
[28] = second compound 0.3 µM, first compound 0.3 µM
[29] = second compound 0.3 µM, first compound 0.949 µM
[30] = second compound 0.3 µM, first compound 3 µM

| SMILES | IC50 (second compound 0.003 µM) [nM] | IC50 (second compound 0.00949 µM) [nM] | IC50 (second compound 0.03 µM) [nM] | IC50 (second compound 0.0949 µM) [nM] | IC50 (second compound 0.3 µM) [nM] | viability, T/C [3] [%] | viability, T/C [4] [%] | viability, T/C [5] [%] | viability, T/C [6] [%] | viability, T/C [9] [%] | viability, T/C [10] [%] | viability, T/C [11] [%] | viability, T/C [12] [%] | viability, T/C [15] [%] | viability, T/C [16] [%] | viability, T/C [17] [%] | viability, T/C [18] [%] | viability, T/C [21] [%] | viability, T/C [22] [%] | viability, T/C [23] [%] | other results |
| --- | --- | --- | --- | --- | --- | --- | --- | --- | --- | --- | --- | --- | --- | --- | --- | --- | --- | --- | --- | --- | --- |
| CNCc1ccc(-c2cc(-c3nc(-c4ccc(S(=O)(=O)C(C)C)cc4)cnc3N)on2)cc1 + CC[C@@]1(O)C(=O)OCc2c1cc1n(c2=O)Cc2cc3c(CN(C)C)c(O)ccc3nc2-1 | 187 | < 9.49 | < 9.49 | < 9.49 | < 9.49 | 61.7 | 44.8 | 1.59 | 0.23 | 34.5 | 1.73 | 0.75 | 0.62 | 1.54 | 1.41 | 0.72 | 0.23 | 1.35 | 1.36 | 0.81 | viability, T/C [1]: 95.1%; viability, T/C [2]: 94%; viability, T/C [7]: 20.6%; viability, T/C [8]: 77.9%; viability, T/C [13]: 1.33%; viability, T/C [14]: 15.5%; viability, T/C [19]: 1.38%; viability, T/C [20]: 14%; viability, T/C [24]: 0.45%; viability, T/C [25]: 1.25%; viability, T/C [26]: 1.26%; viability, T/C [27]: 1.42%; viability, T/C [28]: 1.51%; viability, T/C [29]: 17.5%; viability, T/C [30]: 0.43% |
| Cn1ncnc1[C@H]1c2n[nH]c(=O)c3cc(F)cc(c23)N[C@@H]1c1ccc(F)cc1 + CC[C@@]1(O)C(=O)OCc2c1cc1n(c2=O)Cc2cc3c(CN(C)C)c(O)ccc3nc2-1 | < 9.49 | < 9.49 | < 9.49 | < 9.49 | < 9.49 | 1.47 | 1.41 | 1.48 | 2.21 | 1.8 | 1.98 | 3.83 | 1.52 | 1.38 | 1.56 | 1.83 | 1.87 | 1.43 | 1.39 | 1.38 | viability, T/C [1]: 27.3%; viability, T/C [2]: 6.33%; viability, T/C [7]: 1.59%; viability, T/C [8]: 2.38%; viability, T/C [13]: 1.39%; viability, T/C [14]: 3.65%; viability, T/C [19]: 1.47%; viability, T/C [20]: 1.59%; viability, T/C [24]: 1.57%; viability, T/C [25]: 1.23%; viability, T/C [26]: 1.22%; viability, T/C [27]: 1.27%; viability, T/C [28]: 1.22%; viability, T/C [29]: 1.24%; viability, T/C [30]: 1.3% |
| O=C(c1cc(Cc2n[nH]c(=O)c3ccccc23)ccc1F)N1CCN(C(=O)C2CC2)CC1 + CC[C@@]1(O)C(=O)OCc2c1cc1n(c2=O)Cc2cc3c(CN(C)C)c(O)ccc3nc2-1 | 1250 | < 94.9 | < 94.9 | < 94.9 | < 94.9 | 89 | 84 | 61.2 | 15 | 2.05 | 2.74 | 1.49 | 2.37 | 2.9 | 1.36 | 1.85 | 1.67 | 13.1 | 1.67 | 2.53 | viability, T/C (second compound 0.003 µM, first compound 9.49 µM): 3.53%; viability, T/C (second compound 0.003 µM, first compound 30 µM): 3.79%; viability, T/C (second compound 0.00949 µM, first compound 9.49 µM): 9.35%; viability, T/C (second compound 0.00949 µM, first compound 30 µM): 2.81%; viability, T/C (second compound 0.03 µM, first compound 9.49 µM): 2.73%; viability, T/C (second compound 0.03 µM, first compound 30 µM): 2.96%; viability, T/C [24]: 1.83%; viability, T/C (second compound 0.0949 µM, first compound 9.49 µM): 2.3%; viability, T/C (second compound 0.0949 µM, first compound 30 µM): 2.69%; viability, T/C [27]: 1.51%; viability, T/C [28]: 1.22%; viability, T/C [29]: 1.9%; viability, T/C [30]: 1.37%; viability, T/C (second compound 0.3 µM, first compound 9.49 µM): 1.77%; viability, T/C (second compound 0.3 µM, first compound 30 µM): 3.42% |

From PubChem BioAssay AID1845206 (Molecular Pharmacology Branch, DTP, NCI, 2023)
